# From patent publication US20220332799A1, “HERV INHIBITORS FOR USE IN TREATING TAUOPATHIES” (Deutsches Zentrum Für Neurodegenerative Erkrankungen E.V. …, priority 2019, published 2022)
# Entries after “also recorded” stand apart in the source; their conditions may differ. Where two headings read alike, the source gives them in different places.
# Tests used:
# [1] = tested on: MuERV env and gag mRNA; assay: qRT-PCR of MuERV env and gag transcripts in donor clone s2E; type: cell-based, mouse; settings: for expression of total env and gag mRNA: s2E P1 donors, Aza 200 nM or Dec 100 nM, then 5 days without drug, vs DMSO; for total env and gag mRNA: s2E P21 donors, L-methionine 80 mM, Betaine 80 mM, Choline chloride 20 mM, 6 days, vs medium control
# Description: To inhibit methyltransferases, s2E P1 donor cells were treated for three days with methyltransferase inhibitors 5-Azacytidine (Aza) 200 nM, Decitabine (Dec) 100 nM or DMSO as solvent control. Subsequently, the cells were cultured in the absence of the drugs for 5 days. Pre-treated donor cells were subsequently cocultured with recipient cells as described above to monitor aggregate induction efficiency in recipient N2a NM-GFP^sol cells. Cell lysates of donor cells were also analyzed for MuERV Env and Gag expression levels by western blot. To increase DNA methylation, the s2E donor clone (P21) was treated with methyl group donors L-methionine (L-M) 80 mM, Betaine (B) 80 mM, Choline chloride (CC) 20 mM or medium control for 6 days. MuERV Env and Gag protein levels were analyzed by western blot. Subsequently, cells were cocultured with recipient cells for 16 h. The percentage of aggregate containing recipient cells was compared to the percentage of aggregate bearing recipients cocultured with solvent-treated donors. […]
# Total RNA from cell pellets or brain samples was isolated using the RNeasy Mini Kit or RNeasy Lipid Tissue Mini Kit (Qiagen). RNA concentration and quality were determined using the Agilent 2100 Bioanalyzer System. For a 20 μl reaction, 1 μg RNAs were reversely transcribed to cDNA using the iScript™ cDNA Synthesis Kit (Bio-Rad). For a 20 μl qRT-PCR reaction, 2 μl of synthesized cDNA was used as template. For qRT-PCR of murine env AA037244.2 and gag AID54952, custom designed TaqMan probes were used (Thermo Fisher Scientific). Pre-designed TaqMan probes by the company for murine pan-env, xpr1, mcat-1 and gapdh as housekeeping control and TaqMan™ Gene Expression Master Mix (Thermo Fisher Scientific) were used. qRT-PCR using TaqMan probes was performed as described in the manufacturer's instruction. For qRT-PCR analyses of HERV family members, primers were designed using the corresponding cDNA sequences (cf. SEQ ID NOs. 73-92). PowerUP SYBR™ Green Master Mix (Thermo Fisher Scientific) was mixed with different cDNAs and corresponding primers as indicated in the instruction. The fast cycling mode was used for all primers.
# [2] = tested on: N2a NM-GFP^sol cells; type: cell-based, mouse; settings: for percentage of recipient cells with NM-GFP aggregates: compounds added to cocultures 1 h after co-seeding, three concentrations, 12 h
# [3] = tested on: MuERV Env and Gag; type: cell-based, mouse
# Description: To inhibit methyltransferases, s2E P1 donor cells were treated for three days with methyltransferase inhibitors 5-Azacytidine (Aza) 200 nM, Decitabine (Dec) 100 nM or DMSO as solvent control. Subsequently, the cells were cultured in the absence of the drugs for 5 days. Pre-treated donor cells were subsequently cocultured with recipient cells as described above to monitor aggregate induction efficiency in recipient N2a NM-GFP^sol cells. Cell lysates of donor cells were also analyzed for MuERV Env and Gag expression levels by western blot. To increase DNA methylation, the s2E donor clone (P21) was treated with methyl group donors L-methionine (L-M) 80 mM, Betaine (B) 80 mM, Choline chloride (CC) 20 mM or medium control for 6 days. MuERV Env and Gag protein levels were analyzed by western blot. Subsequently, cells were cocultured with recipient cells for 16 h. The percentage of aggregate containing recipient cells was compared to the percentage of aggregate bearing recipients cocultured with solvent-treated donors.
# Pre-designed siRNAs against murine XPR1 and mCat-1 genes were used to knock-down genes coding for putative receptors. For transfection, 2-4×10^5 cells/well were seeded on 6 well plates. The next day, 30 nM siRNA or plasmid DNA was transfected using Lipofectamine RNAiMAX or Lipofectamine2000 transfection reagent, respectively, according to the manufacturer's instructions (Thermo Fisher Scientific). After 2 days, transfected cells were harvested for aggregate induction assays and qRT-PCR, western blot analysis.
# For Western blot analysis, protein concentrations were measured using the Quick Start™ Bradford Protein assay (Bio-Rad). Proteins were separated on NuPAGE®Novex® 4-12 Bis-Tris Protein Gels (Life Technologies) followed by transfer onto a PVDF membrane (GE Healthcare). Western blot analysis was performed using rat hybridoma anti-MuERV Env mAb83A25; anti-xenotropic MuLV virus antibody ABIN457298 for detecting both Env and Gag (antibodies-online); mouse anti-MuERV Gag ab100970 (Abcam); mouse anti-Alix (1:1000; BD Bioscience); rat anti-HA 3F10 (1:1000; Roche); mouse anti-GAPDH 6C5 (1:5000; Abcam); mouse anti-Hsc/Hsp70 N27F3-4 (1:1000; ENZO); mouse anti-VSV-G A5977 (Sigma); rabbit anti-Tau ab64193 (Abcam); mouse anti-HERV K Env HERM-1811-5 (Amsbio); mouse anti-HERV K Gag HERM-1841-5 (Amsbio). The membrane was incubated with Pierce™ ECL Western Blotting Substrate (Thermo Fisher Scientific) according to the manufacturer's recommendations.
# [4] = biological target: T1, HERV-K protease (Homo sapiens, UniProt P10265); settings: stated as shown previously; cited from earlier work
# T1 sequence (P10265 1-156): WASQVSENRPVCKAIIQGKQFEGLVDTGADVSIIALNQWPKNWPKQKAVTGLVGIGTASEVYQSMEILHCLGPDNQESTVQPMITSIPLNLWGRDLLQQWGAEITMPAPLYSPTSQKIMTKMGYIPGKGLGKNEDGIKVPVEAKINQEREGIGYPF
# [5] = tested on: HEK Tau-FRsol cells; assay: Tau-FR aggregate induction by EV from A375 Tau-GFPAD donor cells; type: cell-based, human; settings: EV from donors treated with 10 μM for 3 d; 3 d on recipients in presence of 10 μM; vs DMSO
# Description: (§1) Melanoma cell line A375 (Oricchio E, Sciamanna I, Beraldi R, Tolstonog G V, Schumann G G, Spadafora C. 2007. Distinct roles for LINE-1 and HERV-K retroelements in cell proliferation, differentiation and tumor progression. Oncogene 26:4226-4233) was engineered to stably express Tau-GFP and subsequently exposed to AD brain homogenate to induce Tau aggregation. A clone stably propagating Tau-GFPagg was isolated and used for experiments. Donor A375 Tau-GFPAD cells were treated with 10 μM inhibitor Lopinavir to repress HERV-K protease for 3 d before EV were harvested. Donors or donor EV were then cultured with recipient HEK Tau-FRsol cells in the presence of 10 μM Lopinavir or DMSO for 3 d. • b. Quantitative analysis of recipient cells with Tau-FRagg upon coculture with donors. Statistical analysis was performed with unpaired Student's t-test (n=6). • c. Quantitative analysis of recipient cells with induced Tau-FRagg following exposure to donor-derived EV. Statistical analysis was performed with unpaired Student's t-test (n=3). […]
# (§2) To inhibit methyltransferase, MCF-7 Tau-GFPAD cells were treated with 2 μM Aza or DMSO for 4 d. […] Afterwards, the total numbers of viable cells and the viability upon drug treatments were determined using the Vi-VELLTMXR Cell Viability Analyzer (Beckman Coulter). […]
# [6] = tested on: HEK Tau-FRsol cells; assay: Tau-FR aggregate induction by coculture with A375 Tau-GFPAD donor cells; type: cell-based, human; settings: donors 10 μM for 3 d; coculture 3 d in presence of 10 μM; vs DMSO
# Description: as §1, §2
structure (smiles),measurement,setting,value
Nc1ncn([C@@H]2O[C@H](CO)[C@@H](O)[C@H]2O)c(=O)n1 [5-Azacytidine],expression of total env and gag mRNA,[1],increased expression of total env and gag mRNA
same,expression of total env and gag mRNA,[1]; listed as 5-azacytidine,"Increased expression of MuERV env (f), gag (h) and pan-env (g) transcripts"
same,NM aggregate induction in recipient cells cocultured with pretreated donors,"[2]; s2E P1 donors pretreated, Aza 200 nM or Dec 100 nM, vs DMSO",significantly increased NM aggregate induction in recipient cells
same,expression of MuERV proteins,"[3]; s2E P1 donors, Aza 200 nM or Dec 100 nM, then 5 days without drug, vs DMSO",increased expression
C[N+](C)(C)CC(=O)O [Betaine],total env and gag mRNA,[1],transcripts decreased
same,total env and gag mRNA,[1]; listed as betaine,decreased total env and gag mRNA
same,NM-GFP aggregate induction when pretreated donors were cocultured with recipient cells,"[2]; s2E P21 donors pretreated 6 days, coculture 16 h",decreased NM-GFP aggregate induction
same,MuERV proteins,"[3]; s2E P21 donors, L-methionine 80 mM, Betaine 80 mM, Choline chloride 20 mM, 6 days, vs medium control",decreased
C[N+](C)(C)CCO.[Cl-] [Choline chloride],total env and gag mRNA,[1],transcripts decreased
same,total env and gag mRNA,[1]; listed as choline chloride,decreased total env and gag mRNA
same,NM-GFP aggregate induction when pretreated donors were cocultured with recipient cells,[2],decreased NM-GFP aggregate induction
same,MuERV proteins,[3],decreased
CSCC[C@H](N)C(=O)O [L-methionine],total env and gag mRNA,[1],transcripts decreased
same,total env and gag mRNA,[1]; listed as 1-methionine,decreased total env and gag mRNA
same,NM-GFP aggregate induction when pretreated donors were cocultured with recipient cells,[2],decreased NM-GFP aggregate induction
same,MuERV proteins,[3],decreased
Cc1cccc(C)c1OCC(=O)N[C@@H](Cc1ccccc1)[C@@H](O)C[C@H](Cc1ccccc1)NC(=O)[C@H](C(C)C)N1CCCNC1=O [Lopinavir],inhibition of HERV-K protease required for HERV protein maturation,[4],inhibit HERV-K protease
same,Tau aggregate inducing activity of donor-derived EV in recipients,[5],reduced Tau aggregate inducing activity in recipients
same,recipient cells with Tau-FRagg upon coculture with donors,[6],significant reduction of recipient cells with aggregates; also recorded: reduces intercellular Tau aggregate spreading; also recorded: reduces intercellular protein aggregate spreading
COC(=O)N[C@H](C(=O)N[C@@H](Cc1ccccc1)[C@@H](O)CN(Cc1ccc(-c2ccccn2)cc1)NC(=O)[C@@H](NC(=O)OC)C(C)(C)C)C(C)(C)C [atazanavir],percentage of recipient cells with NM-GFP aggregates,[2]; vs DMSO,reduced the percentage of recipient cells with NM-GFP aggregates
same,percentage of recipient cells with NM-GFP aggregates,"[2]; vs DMSO, listed as Atazenavir",reduce aggregate induction
